PubChem BioAssay AID2060910 (Molecular Pharmacology Branch, DTP, NCI, 2025)

System: 242566-281-R-J2-PDC complex spheroid viability
Assay: Anticancer human tumor 242566-281-R-J2-PDC patient-derived pancreatic carcinoma cell line growth inhibition [RAS]
Settings: for IC50: curve of first compound; for viability, T/C: stronger effect = lower value
Outline: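 Multi-cell-type spheroids: tumor cells plus HUVEC endothelial cells and mesenchymal stem cells. RAS-pathway inhibitors were combined with targeted agents, each dosed in half-log steps down from clinical Cmax, or from 10 microM when Cmax was unknown.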
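Also: spheroids exposed to compound for 7 days before readout.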
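For viability, T/C in this document: 100% = DMSO vehicle control wells.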

With `CC(=O)OC12COC1CC(O)C1(C)C(=O)C(O)C3=C(C)C(OC(=O)C(O)C(NC(=O)OC(C)(C)C)c4ccccc4)CC(O)(C(OC(=O)c4ccccc4)C21)C3(C)C` (centres undefined) + CCn1c(-c2cccnc2C(C)OC)c2c3cc(ccc31)N1CCOC(CC(NC(=O)C(C(C)C)N(C)C(=O)C3(F)CCN(C(=O)C#CC(C)(C)N(C)C)CC3)C(=O)N3CCCC(N3)C(=O)OCC(C)(C)C2)C1 the IC50 (second compound 0.000949 µM) was under 31.6 nM, the IC50 (second compound 0.003 µM) was under 31.6 nM and the IC50 (second compound 0.00949 µM) was under 31.6 nM. For the same compound, the IC50 (second compound 0.03 µM) was under 31.6 nM, the IC50 (second compound 0.0949 µM) was under 31.6 nM and the IC50 (second compound 0.3 µM) was under 31.6 nM. It also gave a viability, T/C (second compound 0.000949 µM, first compound 0.0316 µM) of 47.2%, a viability, T/C (second compound 0.000949 µM, first compound 0.1 µM) of 33.6% and a viability, T/C (second compound 0.000949 µM, first compound 0.316 µM) of 26.5%. The viability, T/C (second compound 0.000949 µM, first compound 1 µM) was 35.8%, the viability, T/C (second compound 0.000949 µM, first compound 3.16 µM) was 40.1% and the viability, T/C (second compound 0.000949 µM, first compound 10 µM) was 38.8%. For the same compound, the viability, T/C (second compound 0.003 µM, first compound 0.0316 µM) was 40.7%, the viability, T/C (second compound 0.003 µM, first compound 0.1 µM) was 30.1% and the viability, T/C (second compound 0.003 µM, first compound 0.316 µM) was 32.4%. It also gave a viability, T/C (second compound 0.003 µM, first compound 1 µM) of 35.7%, a viability, T/C (second compound 0.003 µM, first compound 3.16 µM) of 40.7% and a viability, T/C (second compound 0.003 µM, first compound 10 µM) of 33.9%. The viability, T/C (second compound 0.00949 µM, first compound 0.0316 µM) was 46.7%, the viability, T/C (second compound 0.00949 µM, first compound 0.1 µM) was 32.3% and the viability, T/C (second compound 0.00949 µM, first compound 0.316 µM) was 35.8%. The viability, T/C (second compound 0.00949 µM, first compound 1 µM) was 37.7%, the viability, T/C (second compound 0.00949 µM, first compound 3.16 µM) was 35.9% and the viability, T/C (second compound 0.00949 µM, first compound 10 µM) was 34.9%. The viability, T/C (second compound 0.03 µM, first compound 0.0316 µM) was 43.2%, the viability, T/C (second compound 0.03 µM, first compound 0.1 µM) was 33.9% and the viability, T/C (second compound 0.03 µM, first compound 0.316 µM) was 31.8%. The viability, T/C (second compound 0.03 µM, first compound 1 µM) was 34.6%, the viability, T/C (second compound 0.03 µM, first compound 3.16 µM) was 29.3% and the viability, T/C (second compound 0.03 µM, first compound 10 µM) was 43.4%. The viability, T/C (second compound 0.0949 µM, first compound 0.0316 µM) was 36.9%, the viability, T/C (second compound 0.0949 µM, first compound 0.1 µM) was 34.5% and the viability, T/C (second compound 0.0949 µM, first compound 0.316 µM) was 31.4%. The viability, T/C (second compound 0.0949 µM, first compound 1 µM) was 33.2%, the viability, T/C (second compound 0.0949 µM, first compound 3.16 µM) was 27.9% and the viability, T/C (second compound 0.0949 µM, first compound 10 µM) was 40.3%. For the same compound, the viability, T/C (second compound 0.3 µM, first compound 0.0316 µM) was 26.3%, the viability, T/C (second compound 0.3 µM, first compound 0.1 µM) was 27% and the viability, T/C (second compound 0.3 µM, first compound 0.316 µM) was 26.2%. The viability, T/C (second compound 0.3 µM, first compound 1 µM) was 20.2%, the viability, T/C (second compound 0.3 µM, first compound 3.16 µM) was 27% and the viability, T/C (second compound 0.3 µM, first compound 10 µM) was 29.4%.

In the case of `CCc1c2c(nc3ccc(O)cc13)-c1cc3c(c(=O)n1C2)COC(=O)[C@]3(O)CC` + CCn1c(-c2cccnc2C(C)OC)c2c3cc(ccc31)N1CCOC(CC(NC(=O)C(C(C)C)N(C)C(=O)C3(F)CCN(C(=O)C#CC(C)(C)N(C)C)CC3)C(=O)N3CCCC(N3)C(=O)OCC(C)(C)C2)C1, the IC50 (second compound 0.000949 µM) is reported as 18.1 nM, the IC50 (second compound 0.003 µM) is reported as 16.9 nM and the IC50 (second compound 0.00949 µM) is reported as 20.3 nM. It also gave an IC50 (second compound 0.03 µM) of 20 nM, an IC50 (second compound 0.0949 µM) of 18.8 nM and an IC50 (second compound 0.3 µM) of 11 nM. The viability, T/C (second compound 0.000949 µM, first compound 0.000949 µM) was 101%, the viability, T/C (second compound 0.000949 µM, first compound 0.003 µM) was 92.3% and the viability, T/C (second compound 0.000949 µM, first compound 0.00949 µM) was 59.5%. The viability, T/C (second compound 0.000949 µM, first compound 0.03 µM) was 39.7%, the viability, T/C (second compound 0.000949 µM, first compound 0.0949 µM) was 25.5% and the viability, T/C (second compound 0.000949 µM, first compound 0.3 µM) was 11.6%. For the same compound, the viability, T/C (second compound 0.003 µM, first compound 0.000949 µM) was 106%, the viability, T/C (second compound 0.003 µM, first compound 0.003 µM) was 79.5% and the viability, T/C (second compound 0.003 µM, first compound 0.00949 µM) was 63.7%. The viability, T/C (second compound 0.003 µM, first compound 0.03 µM) was 37.4%, the viability, T/C (second compound 0.003 µM, first compound 0.0949 µM) was 24.7% and the viability, T/C (second compound 0.003 µM, first compound 0.3 µM) was 10.6%. It also gave a viability, T/C (second compound 0.00949 µM, first compound 0.000949 µM) of 105%, a viability, T/C (second compound 0.00949 µM, first compound 0.003 µM) of 76.1% and a viability, T/C (second compound 0.00949 µM, first compound 0.00949 µM) of 68.5%. For the same compound, the viability, T/C (second compound 0.00949 µM, first compound 0.03 µM) was 45%, the viability, T/C (second compound 0.00949 µM, first compound 0.0949 µM) was 20.7% and the viability, T/C (second compound 0.00949 µM, first compound 0.3 µM) was 11.8%. It also gave a viability, T/C (second compound 0.03 µM, first compound 0.000949 µM) of 100%, a viability, T/C (second compound 0.03 µM, first compound 0.003 µM) of 79.5% and a viability, T/C (second compound 0.03 µM, first compound 0.00949 µM) of 73.9%. It also gave a viability, T/C (second compound 0.03 µM, first compound 0.03 µM) of 38.3%, a viability, T/C (second compound 0.03 µM, first compound 0.0949 µM) of 17.6% and a viability, T/C (second compound 0.03 µM, first compound 0.3 µM) of 11.6%. The viability, T/C (second compound 0.0949 µM, first compound 0.000949 µM) was 84.5%, the viability, T/C (second compound 0.0949 µM, first compound 0.003 µM) was 77.8% and the viability, T/C (second compound 0.0949 µM, first compound 0.00949 µM) was 68%. The viability, T/C (second compound 0.0949 µM, first compound 0.03 µM) was 38.5%, the viability, T/C (second compound 0.0949 µM, first compound 0.0949 µM) was 14.4% and the viability, T/C (second compound 0.0949 µM, first compound 0.3 µM) was 10.3%. For the same compound, the viability, T/C (second compound 0.3 µM, first compound 0.000949 µM) was 84.4%, the viability, T/C (second compound 0.3 µM, first compound 0.003 µM) was 70.1% and the viability, T/C (second compound 0.3 µM, first compound 0.00949 µM) was 56.5%. It also gave a viability, T/C (second compound 0.3 µM, first compound 0.03 µM) of 25.4%, a viability, T/C (second compound 0.3 µM, first compound 0.0949 µM) of 12.4% and a viability, T/C (second compound 0.3 µM, first compound 0.3 µM) of 7.96%.
